Results taken from EP2082991A1, “Method of Water Treatment” (Thermphos Trading GmbH, priority 2008, dated 2009).
Read-outs that look alike come from different tables or passages of the source.

Key:
[1] = minimum concentration for full scale inhibition; 22 hours at 90 °C, pH 6; tested at 15, 30, 50, 70 and 100 ppm
Method: Barium sulphate scale inhibition.
This is a static test to evaluate the efficiency of phosphonates in preventing barium and strontium scale inhibition in oil field scaling conditions. The test is carried out by determining the amount of BaSO4 and SrSO4 that has precipitated after 22 hours at 90 °C in a 50/50 mixture of synthetic North Sea water and Formation water containing the phosphonates to be tested at 5 different concentrations. The amount of soluble Ba and Sr ions is determined by ICP. The results stand for the minimum phosphonate concentration for 100 % barium sulphate scale inhibition or give the scale inhibition at 100 ppm loading of phosphonate.
Test details are as follows:
Synthetic North Sea water:
• synthetic North Sea and Formation water are prepared having a pH of 6. These water solutions are preheated at 90 °C before starting the test. […] Then add to this glass bottle 50 ml of Formation water; • also prepare one blank solution by mixing 50 ml of North Sea water with 50 ml of Formation water; • put the sample bottles in an oven for 22 hours at 90 °C; • after 22 hours, take 3 ml of each test solution from the surface, filter through a 0.45 µm Millipore filter and add to a stabilizing solution.

[2] = 22 hours at 90 °C, pH 5.5
Method: Brine/sea water compatibility.
This test assesses sea water compatibility of the phosphonates added at: 100; 1000; 10000; and 50000 ppm to North Sea water after 22 hours at 90 °C. Calcium left in solution is measured by ICP.
Test details are as follows: • prepare synthetic North Sea water at pH 5.5; • add the phosphonate at 100, 1000, 10000 and 50000 ppm active acid to the synthetic North Sea water solution; • prepare 5 blank solutions made by mixing the required amount of distilled water with North Sea water to obtain the same dilution as obtained by the addition of […], 1000, 10000 and 50000 ppm active acid phosphonate to the synthetic North Sea water solution; • the phosphonate samples with the respective phosphonates at the 4 concentrations as well as the 5 blanks are stored in an oven at 90 °C for a period of 22-24 hours; • upon completion of the test, the samples are observed visually; • after completion of the test, the pH values are being carefully monitored and 50 ml are drawn from each sample, filtered through a […] Millipore filter and stabilized at pH<2 by addition of 37 % aqueous hydrochloric acid; • Ca tolerance values are calculated as follows: % Ca tolerance = (Vi)/(V0) × 100 [formula] • where V0 = ppm Ca found in the blank solution; and • V1 = ppm Ca found in the solution with the phosphonate.

[3] = 1 % active acid phosphonate in synthetic North Sea water, pH 5.5, 140 °C, one week
Method: Thermal stability assessment.
This is a test to assess the thermal stability of phosphonates in the presence of synthetic North Sea water. The test is carried out by submitting mixtures of North Sea water and phosphonates stabilized at pH 5.5 to a one week heating at 140 °C. The thermal degradation is determined by ^31P NMR analysis.

[4] = Peroxide stabilization procedure (perborate/TAED with iron, 40°C, thiosulphate titration); details: 35 ppm phosphonate
Method: Peroxide stabilization procedure
In a 250 ml glass bottle filled with 200ml deionised water stabilized at 40°C add the following ingredients: […], 35ppm of the tested bleach stabilizer, 0.53g of sodium bicarbonate, 0.42g of sodium carbonate, 0.14g of sodium perborate tetrahydrate and 0.06g of tetra-acetyl ethylene diamine (TAED). Dissolve these ingredients in the water by using an ultrasonic bath. After one minute of such treatment the bottle is transferred to the water bath set at 40°C and samples (10 ml each) are taken from the test bottle 2, 6,10,15,20 and 30 minutes thereafter. To these samples are added 10ml of 1M potassium iodide and 10ml of 20% aqueous sulphuric acid before immediate titration with a standardized 0.01N thiosulphate solution.

[5] = minimum phosphonate concentration for 100% calcium carbonate scale inhibition; 22 hours at 50°C, pH 9
Method: Testing method for calcium carbonate scale inhibition.
This is a static test to evaluate the efficiency of phosphonates in preventing calcium carbonate scale inhibition in industrial water treatment conditions. The test is carried out by determining the amount of CaCO3 that has precipitated after 22 hours at 50°C in a 50/50 mixture of cationic and anionic waters with the test phosphonates at 5 different concentrations. The amount of soluble Ca ions is analyzed by titration. Result indicates the % Ca scale inhibition provided by the 5 phosphonate concentrations. Reported results give the minimum phosphonate concentration for 100% calcium carbonate scale inhibition.
• Cationic and anionic waters are prepared at pH 9.

[6] = 100 ppm phosphonate in North Sea water
[7] = 1000 ppm phosphonate in North Sea water
[8] = 10000 ppm phosphonate in North Sea water
[9] = 50000 ppm phosphonate in North Sea water

SMILES | Ba Scale Inhibition: ppm phosphonate needed for 100% BaSO4 scale inhibition [1] [ppm full scale] | Ca Tolerance in % [2, 6] [%] | Ca Tolerance in % [2, 7] [%] | Ca Tolerance in % [2, 8] [%] | Ca Tolerance in % [2, 9] [%] | Thermal Stability at 140°C 1 week Decomposition in % [3] [%] | % remaining act.oxygen ([4]; 0 min) [%] | % remaining act.oxygen ([4]; 2 min) [%] | % remaining act.oxygen ([4]; 6 min) [%] | % remaining act.oxygen ([4]; 10 min) [%] | % remaining act.oxygen ([4]; 15 min) [%] | % remaining act.oxygen ([4]; 20 min) [%] | % remaining act.oxygen ([4]; 30 min) [%] | Ca Scale Inhibition [5] [ppm full scale]
O=P(O)(O)CN(CCO)CP(=O)(O)O [HEIBMPA, 2-Hydroxy ethyl imino bis (methylene phosphonic acid)] | 30 | 100 | 79 | 100 | 100 | 19 | – | – | – | – | – | – | – | –
O=P(O)(O)CN(CCCCC(CCCN(CP(=O)(O)O)CP(=O)(O)O)CN(CP(=O)(O)O)CP(=O)(O)O)CP(=O)(O)O (centres unmarked) [AMODHMPA, 4-Aminomethyl 1,8-octane diamine hexa (methylene phosphonic acid)] | 30 | 99 | 83 | 21 | 100 | 8.8 | – | – | – | – | – | – | – | –
O=P([O-])(O)CN(CCN(CCN(CP(=O)(O)O)CP(=O)(O)O)CP(=O)(O)O)CP(=O)(O)O.[Na+] [Dequest 2066] | – | – | – | – | – | – | 100 | 100 | 99 | 97 | 95 | 94 | 90 | –
O=P(O)(O)CN(CCN(CP(=O)(O)O)CP(=O)(O)O)CCN(CP(=O)(O)O)CP(=O)(O)O [Dequest 2066A, diethylene triaminopentamethylene phosphonate] | 15 | 100 | 89 | 24 | 100 | 24 | – | – | – | – | – | – | – | 2
